# From the supplement of paper PMC11451515
# Test system: NOMO1
# Assay: cell viability relative to DMSO control; higher = less cytotoxic
# Details: 48 h
# Summary of the method: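 Before seeding, each leukemia line was adapted for at least four passages in each medium. NOMO1 or SEM cells (500 cells/well) and P12-Ichikawa cells (1000 cells/well) went into 1536-well plates at 5 μl, then received library compounds in DMSO by pin dosing across 11 threefold concentrations, 47 μM to 0.79 nM. Readout was CellTiter-Glo One luminescence after 48 h at 37°C, and viability is given as a per-plate percentage of DMSO wells, with cell-free wells as background.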
# [1] = HPLM + 10% dialyzed FBS, 0.000781 µM
# [2] = HPLM + 10% dialyzed FBS, 0.00234 µM
# [3] = HPLM + 10% dialyzed FBS, 0.00702 µM
# [4] = HPLM + 10% dialyzed FBS, 0.0211 µM
# [5] = HPLM + 10% dialyzed FBS, 0.0632 µM
# [6] = HPLM + 10% dialyzed FBS, 0.19 µM
# [7] = HPLM + 10% dialyzed FBS, 0.569 µM
# [8] = HPLM + 10% dialyzed FBS, 1.71 µM
# [9] = HPLM + 10% dialyzed FBS, 5.12 µM
# [10] = HPLM + 10% dialyzed FBS, 15.4 µM
# [11] = HPLM + 10% dialyzed FBS, 46.1 µM
# [12] = RPMI 5 mM glucose + 10% FBS, 0.000781 µM
# [13] = RPMI 5 mM glucose + 10% FBS, 0.00234 µM
# [14] = RPMI 5 mM glucose + 10% FBS, 0.00702 µM
# [15] = RPMI 5 mM glucose + 10% FBS, 0.0211 µM
# [16] = RPMI 5 mM glucose + 10% FBS, 0.0632 µM
# [17] = RPMI 5 mM glucose + 10% FBS, 0.19 µM
# [18] = RPMI 5 mM glucose + 10% FBS, 0.569 µM
# [19] = RPMI 5 mM glucose + 10% FBS, 1.71 µM
# [20] = RPMI 5 mM glucose + 10% FBS, 5.12 µM
# [21] = RPMI 5 mM glucose + 10% FBS, 15.4 µM
# [22] = RPMI 5 mM glucose + 10% FBS, 46.1 µM
# [23] = RPMI 5 mM glucose + 10% dialyzed FBS, 0.000781 µM
# [24] = RPMI 5 mM glucose + 10% dialyzed FBS, 0.00234 µM
# [25] = RPMI 5 mM glucose + 10% dialyzed FBS, 0.00702 µM
# [26] = RPMI 5 mM glucose + 10% dialyzed FBS, 0.0211 µM
# [27] = RPMI 5 mM glucose + 10% dialyzed FBS, 0.0632 µM
# [28] = RPMI 5 mM glucose + 10% dialyzed FBS, 0.19 µM
# [29] = RPMI 5 mM glucose + 10% dialyzed FBS, 0.569 µM
# [30] = RPMI 5 mM glucose + 10% dialyzed FBS, 1.71 µM
# [31] = RPMI 5 mM glucose + 10% dialyzed FBS, 5.12 µM
# [32] = RPMI 5 mM glucose + 10% dialyzed FBS, 15.4 µM
# [33] = RPMI 5 mM glucose + 10% dialyzed FBS, 46.1 µM
Compound,cell viability [1],cell viability [2],cell viability [3],cell viability [4],cell viability [5],cell viability [6],cell viability [7],cell viability [8],cell viability [9],cell viability [10],cell viability [11],cell viability [12],cell viability [13],cell viability [14],cell viability [15],cell viability [16],cell viability [17],cell viability [18],cell viability [19],cell viability [20],cell viability [21],cell viability [22],cell viability [23],cell viability [24],cell viability [25],cell viability [26],cell viability [27],cell viability [28],cell viability [29],cell viability [30],cell viability [31],cell viability [32],cell viability [33]
O=C1Nc2ccccc2/C1=C1\Nc2ccccc2C1=O,105%,116%,112%,112%,99.1%,97.7%,110%,96.4%,112%,102%,90.5%,93%,87.4%,97.6%,103%,103%,94.7%,93.7%,88.7%,96.2%,85.6%,86.9%,98.2%,95.9%,109%,100%,88.1%,93.9%,89.4%,94.3%,89.4%,89.1%,84.9%
C#Cc1cccc(Nc2ncnc3cc(OCCOC)c(OCCO)cc23)c1,135%,110%,119%,119%,125%,116%,100%,68.7%,63.3%,69.9%,28.1%,118%,105%,110%,94.6%,118%,104%,112%,94.2%,103%,93.2%,33.9%,118%,123%,98.2%,112%,104%,112%,118%,92.2%,104%,94.7%,41.7%
OC[C@H]1O[C@@H](Oc2ccc(O)cc2)[C@H](O)[C@@H](O)[C@@H]1O,88.1%,102%,95.4%,105%,95.9%,102%,79.7%,101%,86.5%,114%,104%,81.4%,93.9%,87%,83.1%,86%,87.7%,98.5%,91.5%,92.5%,90.8%,88.9%,65.2%,74.8%,85.4%,82.1%,82.3%,79.6%,89.1%,94.5%,86.1%,95.5%,93.4%
O=C(O)[C@H](Cc1c[nH]c2ccccc12)N1C(=O)c2ccccc2C1=O,96.1%,107%,103%,99.4%,110%,91.5%,90.8%,103%,119%,99.6%,117%,89.8%,83.3%,97%,89.1%,87.9%,80.8%,89.3%,97.1%,90.4%,92.3%,86.1%,92.5%,99.1%,104%,101%,98.7%,94.1%,100%,101%,103%,99.6%,83.3%
CNC(=O)[C@H](Cc1ccccc1)NC(=O)[C@H](CC(C)C)[C@H](CSc1cccs1)C(=O)NO,79.9%,100%,91.7%,101%,86.8%,93.7%,97.8%,94.7%,89.4%,77.8%,79.7%,85.6%,76.9%,73.4%,81.1%,93.5%,87.7%,87.2%,95.4%,75%,78.3%,91.8%,78.9%,89%,81.5%,96.7%,87.6%,89.1%,101%,92.8%,83%,70.8%,81.3%
CC(C)(C)/[N+]([O-])=C/c1ccc([S+](=O)([O-])[O][Na])cc1[S+](=O)([O-])[O][Na],97.5%,102%,111%,115%,121%,132%,121%,128%,129%,119%,127%,105%,118%,119%,126%,125%,118%,125%,128%,111%,138%,133%,94%,102%,111%,114%,111%,120%,127%,109%,109%,123%,120%
COc1ccc(Cc2nccc3cc(OC)c(OC)cc23)cc1OC,,,,,,,,,,,,115%,118%,124%,117%,105%,108%,138%,110%,103%,114%,23.3%,,,,,,,,,,,
COc1cc2nccc(Oc3ccc(NC(=O)Nc4cc(C)on4)c(Cl)c3)c2cc1OC,113%,117%,117%,138%,108%,116%,121%,130%,115%,129%,87.8%,,,,,,,,,,,,124%,124%,119%,114%,112%,115%,111%,136%,112%,120%,70.9%
COc1cc(N2CCC(C(N)=O)CC2)ccc1Nc1nc(N)c(Cl)c(Nc2ccccc2[S+](=O)([O-])C(C)C)n1,85.6%,79.1%,99.3%,98.3%,84.8%,96.5%,99.6%,87.1%,66%,46.7%,2.93%,91.9%,83.5%,94%,89.9%,89%,96.4%,92%,91.2%,75.5%,65.9%,2.25%,83.9%,94.2%,90.9%,80.1%,96.4%,93.8%,89.6%,80.4%,60.7%,54.1%,4.26%
Cc1ccc(C(C)(O)c2nc3ccccc3s2)c(C)c1 (stereo not given),88.5%,124%,115%,109%,130%,127%,113%,132%,98.3%,55.7%,28.8%,95.7%,101%,105%,113%,105%,113%,110%,114%,116%,52.6%,21.1%,107%,107%,104%,113%,113%,114%,108%,117%,104%,100%,39.2%
Clc1cccc(-c2nnnn2Cc2cccnc2)c1Cl,82.8%,92.7%,96.4%,99.9%,92.4%,93.1%,79%,57.2%,49.8%,48.6%,33.1%,80%,87.1%,89.5%,84.1%,91.5%,89%,90.5%,62.9%,55.8%,57.2%,48.5%,81.5%,83.6%,91.1%,93.6%,83.7%,83.2%,83.9%,52.5%,59.1%,58%,47.8%
CCCCCCCCCCCC(CC1OC(=O)C1CCCCCC)OC(=O)C(CC(C)C)NC=O (stereo not given),92.9%,105%,100%,109%,110%,114%,118%,114%,109%,98.8%,13.7%,93.5%,104%,95.3%,94.9%,114%,97.8%,102%,97.2%,100%,102%,31%,92.4%,102%,107%,91.7%,107%,102%,95.1%,105%,96.4%,89.2%,37.2%
Cc1ccc(NC(=O)c2ccc(CN3CCN(C)CC3)cc2)cc1Nc1nccc(-c2cccnc2)n1,95.2%,105%,114%,116%,110%,116%,105%,122%,104%,95.4%,109%,90.6%,103%,92.3%,112%,120%,99.6%,114%,111%,104%,103%,103%,96.2%,100%,111%,101%,105%,103%,110%,94%,115%,104%,117%
Clc1ccc(C2(c3ccc(-c4cn[nH]c4)cc3)CCNCC2)cc1,80.5%,101%,111%,100%,100%,98.2%,96.6%,91.9%,69.9%,63.3%,62.7%,80.2%,81.3%,86.4%,83.8%,90.8%,89.2%,98.9%,77.9%,77.6%,65.6%,55.3%,86.7%,99.2%,83.4%,93.5%,99%,103%,81.4%,72.2%,70.3%,59.9%,53.7%
C[C@]\1(CCS\C(=N1)N)C2=CC(=C(F)C=C2F)C3=CN=CN=C3,95.4%,106%,103%,95.2%,118%,112%,98.2%,91.3%,38.1%,25%,3.54%,105%,107%,101%,100%,98%,101%,100%,60.6%,20.3%,20.1%,15%,80.4%,107%,98.5%,103%,109%,106%,100%,96.2%,26.4%,19.8%,22.5%
Fc1cc(-c2cccc3ncc(-c4cnn(C5CCNCC5)c4)nc23)cc(F)c1CN1CCOCC1,111%,122%,130%,132%,108%,124%,135%,103%,42.6%,21.5%,16.1%,109%,107%,119%,102%,111%,116%,114%,105%,84%,29.4%,18.3%,128%,115%,124%,122%,125%,103%,119%,103%,95.2%,54.9%,25.9%
